The values below come from patent publication US7767707B2, “Fused pyrazolyl compounds having an aminoalkylcarbonyl group” (Yung Shin Pharm. Ind. Co., Ltd., priority 2007, dated 2010).

Structures are written as SMILES.

The test deals with NCI H-226 cells. The test can be described thus: Cytotoxicity MTT assay against NCI H-226 cells. In kind it is cell-based. Conditions: NCI H-226 cells (4 × 10^4), 72 hrs treatment, mean ± S.D. of three experiments. On the procedure:
The target compound 5, 6 and related succinate (A), glutamate (B) derivatives were evaluated in a MTT assay against NCI H226 cells, and the results are shown in Table 1.
The NCI H-226 cells were maintained in RPMI-1640 medium supplemented with 10% fetal bovine serum (GIBCO/BRL), penicillin (100 unit/mL)/streptomycin (100 μg/mL) (GIBCO/BRL) and 1% L-glutamine (GIBCO/BRL) at 37° C. in a humidified atmosphere containing 5% CO2. Logarithmically growing tumor cells were used for all experiments.
The cytotoxicity was assessed using MTT assay.^1 NCI H-226 cells (4×10^4) were treated separately with compounds A, B, 5, and 6 for 72 h. After treatment, the cells were collected, washed with cold PBS, and then added 10 μL of MTT solution (5 mg/mL)(Sigma) with 50 μL of cells suspension in HBSS into 96-well plate and incubated them at 37° C. in the dark for 2 h. Treatment of living cells with MTT produces a dark blue formazan product, whereas no such staining is observed in dead cells. The formazan product was dissolved by adding 140 μL DMSO and then the absorbance was measured on an ELISA reader at a best wavelength of 570 nm.
Values are expression as the mean ±S.D. of three independent experiments. Student's t tests were used to assess the statistical significance of the differences, with “p” values of less than 0.05 being considered statistically significant.
(In general: Tetrazolium dyes change colour on reduction, which living cells bring about.)

For `NCC(=O)OCc1ccc(-c2nn(Cc3ccccc3)c3ccccc23)o1` [Compound 5], the MTT % worked out at 85.8 ± 1.7% (Conc. 0.10 μM), 18.5 ± 3.9% (Conc. 1.0 μM) and 0% (Conc. 10.0 μM).
